In this series the test system is Spodoptera littoralis. The series is described as follows: Insecticidal bioassay screening (castor leaf dip, larval mortality). The format is in vivo. To be noted: for Toxicity index %: 72 hrs, Diflubenzuron's LC50/compound's LC50 x 100; for LC90 (mg/L) at 95%: after 72 hrs of treatment; for LC50: Spodoptera littoralis, in Gossypium hirsutum, foliar. On the procedure: Five concentrations (200, 100, 50, 25, 12.5 ppm) were designed for this synthetic compound and the reference Diflubenzuron compound as the dynamic ingredients based on ppm via diluting the commercial formulation.
In this experiment, castor leaves are immersed in each of the previously prepared concentrations of the components for 10 seconds and then left to dry for 60 minutes. Larvae of the second and fourth instars of each checked strain are prepared with treated leaves in gauze-covered glass containers for 72 hrs. An untreated control is made in which leaves are dipped in triton x-100 and distilled water only. Then the preserved leaves were removed & fresh, untreated leaves were provided for 72 hours. Three replicates (10 larvae each) were checked for each concentration. Daily inspection was carried out for all treatments and mortality percentages were recorded 3 days (72 hours) after treatment. The average mortality percentage was corrected employing Abbott's formula. The corrected mortality rate for each of the previously synthesized compounds is statistically calculated according to Finney (1970). Through this rate, the corresponding concentration test lines (LDP lines) are assessed.

[1] abbreviates: against Spodoptera littoralis under laboratory conditions, instar not stated.
Setting [2] is: 72 h, read-out: LC50 (mg/L) at 95%, 2nd instar larvae, after 72 hrs of treatment.
Where [3] appears, read: 72 h, read-out: LC50 (mg/L) at 95%, 4th instar larvae, after 72 hrs of treatment.

Molecules are shown by their SMILES. In brackets after ≈: the same amount, converted by molar mass. Like-named read-outs stand apart in the source and are kept apart here.

Regarding `O=C(NC(=S)Nc1cccc2ccccc12)c1ccco1` [Compound 2, N-(Naphthalen-1-ylcarbamothioyl)furan-2-carboxamide], the Toxicity index % reads like this: (2nd instar larvae) 11.3%; (4th instar larvae) 12.9%. The “LC90 (mg/L) at 95%” value (2nd instar larvae) was determined as 3612.2 mg/L (≈ 12200 µM) and the “LC90 (mg/L) at 95%” value (4th instar larvae) is on record as 1727.9 mg/L (≈ 5830 µM). The compound further displayed an LC50 under setting [1] of 400 mg/L (≈ 1350 µM). Moreover, the “Insecticidal activity (in words)” value (against Spodoptera littoralis, compared with Diflubenzuron) was “active against Spodoptera littoralis”. The “LC50 (mg/L) at 95%” value (in vivo) is recorded as 1211.2 mg/L (≈ 4090 µM).

Take `O=C(NC(=O)c1c(F)cccc1F)Nc1ccc(Cl)cc1` [Diflubenzuron, reference compound]: the Toxicity index % is 100% (2nd instar larvae) and 100% (4th instar larvae). For the same compound, the “LC90 (mg/L) at 95%” value is, setting by setting: (2nd instar larvae) 520.0 mg/L (≈ 1670 µM); (4th instar larvae) 1540.5 mg/L (≈ 4960 µM). The LC50 under setting [2] was 45.2 mg/L (≈ 145 µM), the LC50 under setting [3] was found to be 144 mg/L (≈ 464 µM) and the LC50 under setting [1] is 45.2 mg/L (≈ 145 µM).

As to `O=C(NC(=S)Nc1cccc2ccccc12)c1ccco1` [N-(Naphthalen-1-ylcarbamothioyl)furan-2-carboxamide], the LC50 is approximately 400 mg/L (≈ 1350 µM) under setting [2] and approximately 1210 mg/L (≈ 4090 µM) under setting [3].
